Assay results from US6599747B1, “Soil test” (University of Lancaster, priority 1998, dated 2003).

Assay: Extraction of soil-associated 14C-9-phenanthrene with aqueous HPCD solution
Format: physicochemical
Settings: for Concentration Extracted into HPCD Solution: 20 h
Protocol: A sample was “spiked” with 10 mg kg^−1 14C-9phenanthrene. Samples of the soil (1.25 g) were then extracted for 20 hours (sufficient time for extraction of the rapidly i.e. non-kinetically restrained fraction of compounds to be exchanged—see Example 2) with increasing concentration solutions (25 ml) of HPCD in water. The amount of activity exchanged into the HPCD solution was measured as was the total activity present. The results are shown in Table 1 in which the activity units are dpm g^−1 soil (where dpm stands for disintegrations per minute).
The above extraction was repeated but using an HPCD solution having a concentration of 50 mM. However the extraction was terminated after 3, 6, 12, 18, 24 and 40 hours. The results are shown in Table 2 in which the activity units are dpm […] soil (where dpm stands for disintegration per minute).
Soil was “spiked” to concentrations of 25 and 50 mg kg^−1. The above extraction was repeated but using a HPCD solution having a concentration of 50 mM. Soil samples were aged for 1, 42 and 84 d prior to extraction. An extraction time of 20 h was used as before (Example 1 and 2 ). The biodegradability of the soil associated ^14C-9-phenanthrene was assessed using respirometry. Respirometers consisted of Erlyn,eyer flasks (250 mL), to which soil (10 g) and water (30 mL) were added. The flasks were innoculated (10^7-10^8 g^−1 soil) with a catabolocally active microbial culture. The sealed flasks were shaken and the carbon dioxide evolved from the biodegration of the phenanthrene trapped in potassium hydroxide (1 M, 1 mL.) Mineralisation was measured until it platcauted (240 h).

[1] = HPCD 0 mM, 20 h extraction, soil spiked 10 mg kg^−1
[2] = HPCD 5 mM, 20 h extraction, soil spiked 10 mg kg^−1
[3] = HPCD 10 mM, 20 h extraction, soil spiked 10 mg kg^−1
[4] = HPCD 20 mM, 20 h extraction, soil spiked 10 mg kg^−1
[5] = HPCD 40 mM, 20 h extraction, soil spiked 10 mg kg^−1
[6] = HPCD 50 mM, 20 h extraction, soil spiked 10 mg kg^−1
[7] = HPCD 60 mM, 20 h extraction, soil spiked 10 mg kg^−1

For c1ccc2c(c1)ccc1ccccc12 [phenanthrene], which “HPCD solution concentration giving maximum extraction” value (20 h extraction, soil spiked 10 mg kg^−1) is on record?
The value was 40 mM.

And the “% Exchangeable with HPCD solution” value [1]?
Its value is 2.79%.

And the “Activity Exchanged into HPCD Solution” value [1]?
The value was 86.96 dpm g^−1 soil.

And the “% Exchangeable with HPCD solution” value [2]?
Its value is 38.06%.

What about the “Activity Exchanged into HPCD Solution” value [2] of the same compound?
The value was 1186.25 dpm g^−1 soil.

What about the “% Exchangeable with HPCD solution” value [3] of the same compound?
The value was 45.88%.

What about the “Activity Exchanged into HPCD Solution” value [3] of the same compound?
The value was 1429.98 dpm g^−1 soil.

And the “% Exchangeable with HPCD solution” value [4]?
The value was 57.51%.

And the “Activity Exchanged into HPCD Solution” value [4]?
Its value is 1792.47 dpm g^−1 soil.

And the “% Exchangeable with HPCD solution” value [5]?
Its value is 71.63%.

What about the “Activity Exchanged into HPCD Solution” value [5] of the same compound?
Its value is 2232.56 dpm g^−1 soil.

What about the “extraction time after which the rapidly (non-kinetically restrained) fraction was extracted” value (HPCD 50 mM) of the same compound?
The value was 6 h.

What about the “% Exchangeable with HPCD solution” value [6] of the same compound?
The value was 64.33%.

What about the “Activity Exchanged into HPCD Solution” value [6] of the same compound?
The value was 2005.03 dpm g^−1 soil.

What about the “% Exchangeable with HPCD solution” value (HPCD 50 mM, extraction time 0 h) of the same compound?
Its value is 0.0%.

What about the “% Exchangeable with HPCD solution” value (HPCD 50 mM, extraction time 3 h) of the same compound?
Its value is 64.2%.

What about the “% Exchangeable with HPCD solution” value (HPCD 50 mM, extraction time 6 h) of the same compound?
Its value is 73.4%.

What about the “% Exchangeable with HPCD solution” value (HPCD 50 mM, extraction time 12 h) of the same compound?
The value was 72.8%.

And the “% Exchangeable with HPCD solution” value (HPCD 50 mM, extraction time 18 h)?
The value was 74.5%.

What about the “% Exchangeable with HPCD solution” value (HPCD 50 mM, extraction time 24 h) of the same compound?
The value was 76.8%.

And the “% Exchangeable with HPCD solution” value (HPCD 50 mM, extraction time 40 h)?
Its value is 75.6%.

What about the “% Exchangeable with HPCD solution” value [7] of the same compound?
The value was 69.74%.

And the “Activity Exchanged into HPCD Solution” value [7]?
The value was 2173.65 dpm g^−1 soil.

And the “Concentration Extracted into HPCD Solution” value (soil spiked 25 mg/kg^−1, aged 1 d, HPCD 50 mM)?
The value was 19.5 mg/kg^−1.

What about the “Concentration Extracted into HPCD Solution” value (soil spiked 25 mg/kg^−1, aged 42 d, HPCD 50 mM) of the same compound?
The value was 17.6 mg/kg^−1.

And the “Concentration Extracted into HPCD Solution” value (soil spiked 25 mg/kg^−1, aged 84 d, HPCD 50 mM)?
Its value is 15.5 mg/kg^−1.

What about the “Concentration Extracted into HPCD Solution” value (soil spiked 50 mg/kg^−1, aged 1 d, HPCD 50 mM) of the same compound?
The value was 29.9 mg/kg^−1.

What about the “Concentration Extracted into HPCD Solution” value (soil spiked 50 mg/kg^−1, aged 42 d, HPCD 50 mM) of the same compound?
The value was 15.4 mg/kg^−1.

And the “Concentration Extracted into HPCD Solution” value (soil spiked 50 mg/kg^−1, aged 84 d, HPCD 50 mM)?
Its value is 1.0 mg/kg^−1.
